Consider 32 compounds from patent US9708312B2, “Dihydropyrimidinoisoquinolinones and pharmaceutical compositions thereof for the treatment of inflammatory disorders (GPR84 antagonists)” (GALAPAGOS NV, priority 2012, dated 2017).

This test addresses T1, GPR84 (Homo sapiens, UniProt Q9NQS5).
T1 construct: expressed in transfected cells
Put plainly: GPR84 [35S]GTPγS binding assay, HEPES buffer. In kind it is biochemical. To be noted: 3,3′ di indolylmethane at EC80, membranes from stable cell line over expressing GPR84. How it is done: 1.1. Cell Based Assay: GTp-γ S Binding Assay.
The following assay can be used for determination of GPR84 activation.
The assay is performed in a 96 well plate where the following reagents are added. […] In a last step, 30 μL of a mixture consisting of membranes-GTPγS-SpA beads is added [mixture consists of 20 μg/well membranes derived from stable cell line over expressing GPR84 (membranes are pre-incubated with 0.1 μM GDP for 15 min at 4° C.), 0.1 nM [^35S]GTPγS (Perkin Elmer, NEG030) and 0.5 mg/well PVT-WGA SpA beads (Perkin Elmer, RPNQ0001)]. All components are diluted in assay buffer containing 20 mM HEPES pH 7.4; 5 mM MgCl2; 250 mM NaCl; 0.05% BSA; 75 ug/mL saponin Reactions are incubated for 90 min at room temperature followed by centrifugation at 2000 rpm during 15 min. Plates are read on a Topcount reader (Perkin Elmer) immediately after centrifugation (readout time, 1 min/well).
On the technique in general: GTPγS resists hydrolysis and so accumulates on activated G proteins.

T1 sequence (Q9NQS5 whole entry): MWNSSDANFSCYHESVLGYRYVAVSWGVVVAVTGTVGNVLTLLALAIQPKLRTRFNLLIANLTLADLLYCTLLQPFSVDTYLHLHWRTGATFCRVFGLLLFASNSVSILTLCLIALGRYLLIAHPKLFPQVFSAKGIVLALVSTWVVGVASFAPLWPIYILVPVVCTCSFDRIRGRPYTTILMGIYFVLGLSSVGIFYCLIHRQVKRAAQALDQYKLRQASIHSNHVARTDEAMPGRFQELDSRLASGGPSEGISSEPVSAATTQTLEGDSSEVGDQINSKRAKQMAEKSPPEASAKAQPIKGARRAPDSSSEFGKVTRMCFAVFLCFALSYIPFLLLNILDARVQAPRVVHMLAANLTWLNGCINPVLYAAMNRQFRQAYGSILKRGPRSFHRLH

On to `COc1ccc2c(c1)CCn1c-2cc(OCC2Cc3ccccc3O2)nc1=O` (centres unmarked) [compound 5, 2-(2,3-dihydro-benzofuran-2-ylmethoxy)-9-methoxy-6,7-dihydro-pyrimido[6,1-a]isoquinolin-4-one], for which the IC50 was 500 to 1000 nM.
Next, `O=c1nc(OCC2CCCO2)cc2n1CCc1cc(OCc3ccccc3)ccc1-2` (centres unmarked) [compound 7, 9-benzyloxy-2-(tetrahydro-furan-2-ylmethoxy)-6,7-dihydro-pyrimido[6,1-a]isoquinolin-4-one]: 0.01 to 100 nM; `O=c1nc(OCC2CCCO2)cc2n1CCc1cc(OCc3cccnc3)ccc1-2` (centres unmarked) [compound 8, 9-(pyridin-3-ylmethoxy)-2-(tetrahydro-furan-2-ylmethoxy)-6,7-dihydro-pyrimido[6,1-a]isoquinolin-4-one]: 100 to 500 nM.
The figure for `CCCCOc1ccc2c(c1)CCn1c-2cc(OCC2CCCO2)nc1=O` (centres unmarked) [compound 10, 9-butoxy-2-(tetrahydro-furan-2-ylmethoxy)-6,7-dihydro-pyrimido[6,1-a]isoquinolin-4-one] is 100 to 500 nM; for `O=c1nc(OCC2CCCO2)cc2n1CCc1cc(OCC3CC3)ccc1-2` (centres unmarked) [compound 11, 9-cyclopropylmethoxy-2-(tetrahydro-furan-2-ylmethoxy)-6,7-dihydro-pyrimido[6,1-a]isoquinolin-4-one] it is 100 to 500 nM.
Take `O=c1nc(OCC2CCCO2)cc2n1CCc1cc(OCCc3ccccc3)ccc1-2` (centres unmarked) [compound 12, 9-phenethyloxy-2-(tetrahydro-furan-2-ylmethoxy)-6,7-dihydro-pyrimido[6,1-a]isoquinolin-4-one]: the concentration for half-maximal inhibition (IC50) was 100 to 500 nM.
On to `O=c1nc(OCC2CCCO2)cc2n1CCc1cc(OCc3ccncc3)ccc1-2` (centres unmarked) [compound 13, 9-(pyridin-4-ylmethoxy)-2-(tetrahydro-furan-2-ylmethoxy)-6,7-dihydro-pyrimido[6,1-a]isoquinolin-4-one], for which the IC50 lay in the range of 100 to 500 nM.
The figure for `O=c1nc(OCC2CCCO2)cc2n1CCc1cc(OCc3ccccn3)ccc1-2` (centres unmarked) [compound 14, 9-(pyridin-2-ylmethoxy)-2-(tetrahydro-furan-2-ylmethoxy)-6,7-dihydro-pyrimido[6,1-a]isoquinolin-4-one] is 100 to 500 nM.
The figure for `N#Cc1ccc(COc2ccc3c(c2)CCn2c-3cc(OCC3CCCO3)nc2=O)cc1` (centres unmarked) [compound 17, 4-[4-oxo-2-(tetrahydro-furan-2-ylmethoxy)-6,7-dihydro-4H-pyrimido[6,1-a]isoquinolin-9-yloxymethyl]-benzonitrile] is 0.01 to 100 nM; for `N#Cc1cccc(COc2ccc3c(c2)CCn2c-3cc(OCC3CCCO3)nc2=O)c1` (centres unmarked) [compound 19, 3-[4-oxo-2-(tetrahydro-furan-2-ylmethoxy)-6,7-dihydro-4H-pyrimido[6,1-a]isoquinolin-9-yloxymethyl]-benzonitrile] it is 100 to 500 nM.
Next, `N#Cc1ccccc1COc1ccc2c(c1)CCn1c-2cc(OCC2CCCO2)nc1=O` (centres unmarked) [compound 20, 2-[4-oxo-2-(tetrahydro-furan-2-ylmethoxy)-6,7-dihydro-4H-pyrimido[6,1-a]isoquinolin-9-yloxymethyl]-benzonitrile]: 0.01 to 100 nM; `O=c1nc(OCC2CCCO2)cc2n1CCc1cc(OCc3ccc(Cl)cc3)ccc1-2` (centres unmarked) [compound 21, 9-(4-chloro-benzyloxy)-2-(tetrahydro-furan-2-ylmethoxy)-6,7-dihydro-pyrimido[6,1-a]isoquinolin-4-one]: 0.01 to 100 nM.
For the compound `O=c1nc(OCC2CCCO2)cc2n1CCc1cc(OCc3cccc(Cl)c3)ccc1-2` (centres unmarked) [compound 22, 9-(3-chloro-benzyloxy)-2-(tetrahydro-furan-2-ylmethoxy)-6,7-dihydro-pyrimido[6,1-a]isoquinolin-4-one], the IC50 was in the range of 0.01 to 100 nM.
Next, `O=c1nc(OCC2CCCO2)cc2n1CCc1cc(OCc3ccccc3Cl)ccc1-2` (centres unmarked) [compound 23, 9-(2-chloro-benzyloxy)-2-(tetrahydro-furan-2-ylmethoxy)-6,7-dihydro-pyrimido[6,1-a]isoquinolin-4-one]: 100 to 500 nM.
`O=c1nc(OCC2CCCO2)cc2n1CCc1cc(OCc3ccc(F)cc3)ccc1-2` (centres unmarked) [compound 24, 9-(4-fluoro-benzyloxy)-2-(tetrahydro-furan-2-ylmethoxy)-6,7-dihydro-pyrimido[6,1-a]isoquinolin-4-one] registered an IC50 of 100 to 500 nM.
Next, `O=c1nc(OCC2CCCO2)cc2n1CCc1cc(OCc3ccccc3[N+](=O)[O-])ccc1-2` (centres unmarked) [compound 25, 9-(2-nitro-benzyloxy)-2-(tetrahydro-furan-2-ylmethoxy)-6,7-dihydro-pyrimido[6,1-a]isoquinolin-4-one]: 0.01 to 100 nM; `COC(=O)c1ccc(COc2ccc3c(c2)CCn2c-3cc(OCC3CCCO3)nc2=O)cc1` (centres unmarked) [compound 26, 4-[4-oxo-2-(tetrahydro-furan-2-ylmethoxy)-6,7-dihydro-4H-pyrimido[6,1-a]isoquinolin-9-yloxymethyl]-benzoic acid methyl ester]: 100 to 500 nM.
Next, `COC(=O)c1cccc(COc2ccc3c(c2)CCn2c-3cc(OCC3CCCO3)nc2=O)c1` (centres unmarked) [compound 27, 3-[4-oxo-2-(tetrahydro-furan-2-ylmethoxy)-6,7-dihydro-4H-pyrimido[6,1-a]isoquinolin-9-yloxymethyl]-benzoic acid methyl ester]: 0.01 to 100 nM; `O=c1nc(OCC2COc3ccccc3O2)cc2n1CCc1cc(OCc3ccccn3)ccc1-2` (centres unmarked) [compound 28, 2-(2,3-dihydro-benzo[1,4]dioxin-2-ylmethoxy)-9-(pyridin-2-ylmethoxy)-6,7-dihydro-pyrimido[6,1-a]isoquinolin-4-one]: 0.01 to 100 nM.
Regarding `CC(C)(C)OC(=O)COc1ccc2c(c1)CCn1c-2cc(OCC2COc3ccccc3O2)nc1=O` (centres unmarked) [compound 29, [2-(2,3-dihydro-benzo[1,4]dioxin-2-ylmethoxy)-4-oxo-6,7-dihydro-4H-pyrimido[6,1-a]isoquinolin-9-yloxy]-acetic acid tert-butyl ester], the IC50 was 0.01 to 100 nM.
With `O=c1nc(OCC2COc3ccccc3O2)cc2n1CCc1cc(OCC3COc4ccccc4O3)ccc1-2` (centres unmarked) [compound 30, 2,9-bis-(2,3-dihydro-benzo[1,4]dioxin-2-ylmethoxy)-6,7-dihydro-pyrimido[6,1-a]isoquinolin-4-one], the IC50 is 0.01 to 100 nM.
The compound `O=c1nc(OCC2CCCO2)cc2n1CCc1cc(OCc3ccc([N+](=O)[O-])cc3)ccc1-2` (centres unmarked) [compound 33, 9-(4-nitro-benzyloxy)-2-(tetrahydro-furan-2-ylmethoxy)-6,7-dihydro-pyrimido[6,1-a]isoquinolin-4-one] gave an IC50 of 0.01 to 100 nM.
The figure for `Cc1ccc(COc2ccc3c(c2)CCn2c-3cc(OCC3CCCO3)nc2=O)cc1` (centres unmarked) [compound 35, 9-(4-methyl-benzyloxy)-2-(tetrahydro-furan-2-ylmethoxy)-6,7-dihydro-pyrimido[6,1-a]isoquinolin-4-one] is 0.01 to 100 nM; for `O=c1nc(OCC2CCCO2)cc2n1CCc1cc(OCc3ccc4ccccc4c3)ccc1-2` (centres unmarked) [compound 37, 9-(naphthalen-2-ylmethoxy)-2-(tetrahydro-furan-2-ylmethoxy)-6,7-dihydro-pyrimido[6,1-a]isoquinolin-4-one] it is 0.01 to 100 nM; for `Cc1ccccc1COc1ccc2c(c1)CCn1c-2cc(OCC2CCCO2)nc1=O` (centres unmarked) [compound 39, 9-(2-methyl-benzyloxy)-2-(tetrahydro-furan-2-ylmethoxy)-6,7-dihydro-pyrimido[6,1-a]isoquinolin-4-one] it is 0.01 to 100 nM.
Take `COc1ccccc1OCCOc1ccc2c(c1)CCn1c-2cc(OCC2CCCO2)nc1=O` (centres unmarked) [compound 40, 9-[2-(2-methoxy-phenoxy)-ethoxy]-2-(tetrahydro-furan-2-ylmethoxy)-6,7-dihydro-pyrimido[6,1-a]isoquinolin-4-one]: the IC50 fell in the range of 0.01 to 100 nM.
The figure for `COc1cccc(OCCOc2ccc3c(c2)CCn2c-3cc(OCC3CCCO3)nc2=O)c1` (centres unmarked) [compound 41, 9-[2-(3-methoxy-phenoxy)-ethoxy]-2-(tetrahydro-furan-2-ylmethoxy)-6,7-dihydro-pyrimido[6,1-a]isoquinolin-4-one] is 0.01 to 100 nM; for `COc1ccc(OCCOc2ccc3c(c2)CCn2c-3cc(OCC3CCCO3)nc2=O)cc1` (centres unmarked) [compound 42, 9-[2-(4-methoxy-phenoxy)-ethoxy]-2-(tetrahydro-furan-2-ylmethoxy)-6,7-dihydro-pyrimido[6,1-a]isoquinolin-4-one] it is 0.01 to 100 nM.
The figure for `O=c1nc(OCC2CCCO2)cc2n1CCc1cc(OCCOc3ccccc3Cl)ccc1-2` (centres unmarked) [compound 43, 9-[2-(2-chloro-phenoxy)-ethoxy]-2-(tetrahydro-furan-2-ylmethoxy)-6,7-dihydro-pyrimido[6,1-a]isoquinolin-4-one] is 0.01 to 100 nM; for `O=c1nc(OCC2CCCO2)cc2n1CCc1cc(OCCOc3cccc(Cl)c3)ccc1-2` (centres unmarked) [compound 44, 9-[2-(3-chloro-phenoxy)-ethoxy]-2-(tetrahydro-furan-2-ylmethoxy)-6,7-dihydro-pyrimido[6,1-a]isoquinolin-4-one] it is 0.01 to 100 nM; for `O=c1nc(OCC2CCCO2)cc2n1CCc1cc(OCCOc3ccc(Cl)cc3)ccc1-2` (centres unmarked) [compound 45, 9-[2-(4-chloro-phenoxy)-ethoxy]-2-(tetrahydro-furan-2-ylmethoxy)-6,7-dihydro-pyrimido[6,1-a]isoquinolin-4-one] it is 0.01 to 100 nM.
The figure for `CC(C)(Oc1ccc2c(c1)CCn1c-2cc(OCC2COc3ccccc3O2)nc1=O)C(N)=O` (centres unmarked) [compound 49, 2-[2-(2,3-dihydro-benzo[1,4]dioxin-2-ylmethoxy)-4-oxo-6,7-dihydro-4H-pyrimido[6,1-a]isoquinolin-9-yloxy]-2-methyl-propionamide] is 0.01 to 100 nM.

In general, IC50 refers to the concentration needed to halve the response being measured. The low end stands for inhibition by little substance, the high end for a need for much substance.
